Test systems include HT-29; MDA-N; NCI-H522; RXF 393; SK-MEL-28; HOP-62; UACC-257; K562; MCF7; MDA-MB-231; A549; CAKI-1; KM12; RPMI-8226; U-251; SK-MEL-2; MOLT-4; ACHN.
Common to all, as to assay: DTP human tumour cell line panel, 48 h

“And” between values parts separate entries of the source, which are not always exact repeats. Equal entries are not always repeated.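 Growth conditions: 96-well plates. Treatment: test compound, 48 hours, 5 concentrations. Analysis: linear interpolation between bracketing concentrations; unreached endpoints set to highest concentration. Abbreviation: GI50, concentration required for 50% inhibition of growth.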 The source made the active and inactive calls. Rule as the data show it: active = GI50 up to about 1.1 µM and inactive = higher.

Regarding `C=C(Cl)C(Cl)(CBr)CCC(Br)C(C)(C)Cl` (stereo not given), the GI50 in the assay on HT-29 is 497 nM (active) and 828 nM (active) and 735 nM (active); in the assay on MDA-N, 2.28 µM (inactive) and 964 nM (active) and 8.77 µM (inactive); in the assay with NCI-H522 it was 16 µM (inactive) and 13.8 µM (inactive) and 14.3 µM (inactive); in the assay on RXF 393, 991 nM (active) and 190 nM (active) and 1.11 µM (active); with SK-MEL-28, 1.73 µM (inactive) and 11.5 µM (inactive) and 2.28 µM (inactive); in the assay on HOP-62 it was 703 nM (active) and 785 nM (active) and 1.43 µM (inactive). The GI50 in the assay on UACC-257 was 2.78 µM (inactive) and 1.66 µM (inactive) and 2.1 µM (inactive); with K562, 1.33 µM (inactive) and 14.4 µM (inactive) and 863 nM (active); with MCF7, 1.26 µM (inactive) and 2.54 µM (inactive) and 220 nM (active); in the assay on MDA-MB-231 it was 8.36 µM (inactive) and 1.22 µM (inactive) and 1.95 µM (inactive); in the assay on A549, 4.36 µM (inactive) and 2.48 µM (inactive) and 3.09 µM (inactive); with CAKI-1, 217 nM (active) and 1.02 µM (active) and 828 nM (active). Also, the GI50 with KM12 is 1.34 µM (inactive) and 2.32 µM (inactive) and 1.43 µM (inactive); with RPMI-8226, 149 nM (active) and 221 nM (active) and 485 nM (active); with U-251, 277 nM (active) and 1.41 µM (inactive) and 615 nM (active); in the assay on SK-MEL-2, 1.31 µM (inactive); in the assay with MOLT-4 it was 20.6 µM (inactive) and 10.1 µM (inactive) and 13.5 µM (inactive); in the assay on ACHN, 1.7 µM (inactive) and 1.18 µM (inactive) and 1.32 µM (inactive).

Regarding `CCOc1cc(CCNC)c2c(ccc3ccc(OC)c(O)c32)c1OC`, the GI50 with HT-29 is 14.8 µM (inactive); in the assay with MDA-N, 2.49 µM (inactive); in the assay with NCI-H522, 5.14 µM (inactive); with RXF 393, 15.7 µM (inactive); in the assay on SK-MEL-28, 17.9 µM (inactive); with HOP-62, 20.3 µM (inactive). The GI50 was 13.1 µM (inactive) in the assay with UACC-257; 17 µM (inactive) with K562; 8.47 µM (inactive) in the assay with MCF7; 13.4 µM (inactive) in the assay on MDA-MB-231; 19.3 µM (inactive) in the assay with A549; 17.5 µM (inactive) in the assay on CAKI-1. Besides, the GI50 with KM12 is 11.9 µM (inactive); in the assay on RPMI-8226, 12.4 µM (inactive); in the assay with U-251, 18.3 µM (inactive); in the assay with SK-MEL-2, 14.2 µM (inactive); with MOLT-4, 5.82 µM (inactive); in the assay with ACHN, 13.6 µM (inactive).

As for `CN(C(=O)Nc1ccc(Cl)c(Cl)c1)C1CCCC[C@@H]1N1CCCC1` (stereo not given in full), the GI50 in the assay with HT-29 is 29.4 µM (inactive); in the assay with MDA-N, 34 µM (inactive); in the assay with NCI-H522, 41.7 µM (inactive); with RXF 393, 37.7 µM (inactive); in the assay on SK-MEL-28 it was 21.7 µM (inactive); in the assay on HOP-62 it was > 100 µM (inactive). Further, the GI50 is 18.8 µM (inactive) in the assay on UACC-257; 24.2 µM (inactive) in the assay on K562; 33.6 µM (inactive) in the assay with MCF7; 47.9 µM (inactive) in the assay with MDA-MB-231; 61.2 µM (inactive) in the assay with A549; 70.6 µM (inactive) with CAKI-1. Also, the GI50 was 39.5 µM (inactive) in the assay with KM12; 24.7 µM (inactive) with RPMI-8226; 53.7 µM (inactive) with U-251; 38.3 µM (inactive) with SK-MEL-2; 19.6 µM (inactive) with MOLT-4; 52 µM (inactive) with ACHN.

`Clc1cc(OCC23CC4CC(CC(C4)C2)C3)nc(OCC23CC4CC(CC(C4)C2)C3)n1`: the GI50 in the assay on HT-29, in the assay with MDA-N, with NCI-H522, in the assay with RXF 393, with SK-MEL-28 and in the assay with HOP-62 was > 100 µM (inactive) each time. The GI50 in the assay on UACC-257, in the assay with K562, in the assay with MCF7, in the assay on MDA-MB-231, in the assay on A549 and in the assay on CAKI-1 was > 100 µM (inactive) throughout. Also, the GI50 in the assay with KM12, with RPMI-8226, in the assay with U-251, in the assay on SK-MEL-2, with MOLT-4 and in the assay with ACHN was > 100 µM (inactive) throughout.

With `c1ccc([P+](CCN2Cc3ccccc3C2)(c2ccccc2)c2ccccc2)cc1`, the GI50 with HT-29 is 3.52 µM (inactive); in the assay on MDA-N, 3.27 µM (inactive); with NCI-H522 it was 2.73 µM (inactive); in the assay with RXF 393, 5.35 µM (inactive); in the assay on SK-MEL-28, 2.74 µM (inactive); with HOP-62 it was 8.67 µM (inactive). For the same compound, the GI50 in the assay with UACC-257 was 2.35 µM (inactive); in the assay with K562, 2.79 µM (inactive); in the assay with MCF7 it was 3.59 µM (inactive); with MDA-MB-231, 3.94 µM (inactive); in the assay on A549, 4.99 µM (inactive); in the assay with CAKI-1 it was 38.3 µM (inactive). Also, the GI50 in the assay on KM12 was 3.23 µM (inactive); in the assay with RPMI-8226, 0.051 µM (active); in the assay with U-251, 2.19 µM (inactive); with SK-MEL-2, 2.27 µM (inactive); in the assay on MOLT-4 it was 6.44 µM (inactive); in the assay with ACHN, 5.69 µM (inactive).

Consider `O=C1C=C2C(=NC34CCCCC3C(c3ccccc3)C3=C(c5ccccc5CC3)N24)c2ccccc21` (stereo not given), for which the GI50 in the assay on HT-29, in the assay on MDA-N, in the assay on NCI-H522, in the assay on RXF 393, in the assay with SK-MEL-28 and in the assay with HOP-62 was > 10 µM (inactive) each time. Also, the GI50 with UACC-257, in the assay on K562, in the assay on MCF7, in the assay on MDA-MB-231, with A549 and in the assay on CAKI-1 was > 10 µM (inactive) throughout. In addition, the GI50 in the assay on KM12, in the assay with RPMI-8226, in the assay with U-251, in the assay with SK-MEL-2, in the assay with MOLT-4 and with ACHN was > 10 µM (inactive) in each case.

As for `O=C(O)C[C@@H]1[C@@H](O)[C@@H](O)CN2C(=O)c3ccccc3[C@H]12`, the GI50 with HT-29, in the assay on MDA-N, with NCI-H522, in the assay on RXF 393, in the assay on SK-MEL-28 and in the assay with HOP-62 was > 100 µM (inactive) in each case. Further, the GI50 in the assay with UACC-257, in the assay with K562, with MCF7, in the assay with MDA-MB-231, with A549 and in the assay with CAKI-1 was > 100 µM (inactive) throughout. The GI50 in the assay on KM12, with RPMI-8226, in the assay with U-251, in the assay on SK-MEL-2, with MOLT-4 and in the assay on ACHN was > 100 µM (inactive) throughout.

Consider `CC(CCc1ccccc1)NCC(O)n1c(/N=N/N(C)C)nc2c1c(=O)n(C)c(=O)n2C` (stereo not given), for which the GI50 in the assay with HT-29, with MDA-N, in the assay with NCI-H522, in the assay on RXF 393, in the assay with SK-MEL-28 and in the assay on HOP-62 was > 100 µM (inactive) throughout. The GI50 with UACC-257 was > 100 µM (inactive); in the assay with K562, > 100 µM (inactive); in the assay on MCF7, > 100 µM (inactive); with MDA-MB-231 it was > 100 µM (inactive); with A549 it was > 100 µM (inactive); in the assay on CAKI-1 it was 88.7 µM (inactive). The GI50 in the assay on KM12, in the assay on RPMI-8226, in the assay on U-251, in the assay on SK-MEL-2, in the assay on MOLT-4 and in the assay on ACHN was > 100 µM (inactive) each time.

Consider `COC(=O)C1=C(C(=O)OC)N(c2ccncc2)C(c2ccco2)=CC1c1ccccc1[N+](=O)[O-]` (stereo not given), for which the GI50 in the assay with HT-29 was 1.99 µM (inactive); with MDA-N, 2.71 µM (inactive); with NCI-H522, 2.03 µM (inactive); with RXF 393 it was 4.65 µM (inactive); in the assay with SK-MEL-28, 6.32 µM (inactive); in the assay with HOP-62, 15.5 µM (inactive). Moreover, the GI50 in the assay with UACC-257 is 2.02 µM (inactive); in the assay on K562 it was 1.44 µM (inactive); in the assay with MCF7, 1.87 µM (inactive); in the assay on MDA-MB-231, 11.6 µM (inactive); in the assay with A549, 10.3 µM (inactive); with CAKI-1 it was 14.2 µM (inactive). The GI50 was 1.6 µM (inactive) in the assay on KM12; 1.39 µM (inactive) in the assay with RPMI-8226; 3.32 µM (inactive) in the assay on U-251; 18.2 µM (inactive) in the assay on SK-MEL-2; 2.16 µM (inactive) with MOLT-4; 2.01 µM (inactive) in the assay with ACHN.

For the compound `COc1ccc2c(c1)/C(=C\c1c(Cl)nc3sc(C)cn13)C(=O)N2`, the GI50 is 2.41 µM (inactive) in the assay with HT-29; 0.418 µM (active) in the assay with MDA-N; 3.05 µM (inactive) in the assay on NCI-H522; 8.22 µM (inactive) with RXF 393; 8.17 µM (inactive) in the assay with SK-MEL-28; 6.4 µM (inactive) with HOP-62. Further, the GI50 with UACC-257 was 4.11 µM (inactive); in the assay on K562, 0.521 µM (active); in the assay on MCF7 it was 3.52 µM (inactive); in the assay with MDA-MB-231, 5.65 µM (inactive); with A549 it was 3.79 µM (inactive); with CAKI-1, 3.37 µM (inactive). The GI50 was 1.71 µM (inactive) with KM12; 2.61 µM (inactive) with RPMI-8226; 3.21 µM (inactive) with U-251; 2.87 µM (inactive) with SK-MEL-2; 1.54 µM (inactive) with MOLT-4; 6.95 µM (inactive) in the assay on ACHN.

The GI50 is the concentration giving 50% growth inhibition.
